# According to publication PMC5465209 (Scientific Reports, 2017):
# Legend:
# [1] = tested on: isolated islets from BALB/c mice; test: Insulin secretion in isolated islets (mouse insulin ELISA); assay type: cell-based; details: FK506 0.01, 0.1 and 1 μM for 97 h, p < 0.05 for 0.01 μM, p < 0.01 for 0.1 and 1 μM, dose-dependent
# Protocol: (§1) After 48, 96, or 144 hours, fresh medium was added; the samples taken to investigate the release of insulin were taken 1 hour later and assayed with a mouse insulin ELISA kit (Shibayagi, Shibukawa, Gunma, Japan).
# βTC6 cells = test: Insulin secretion in βTC6 cells (mouse insulin ELISA); assay type: cell-based; details: FK506 0.01, 0.1 and 1 μM for 97 h, p < 0.05 for 0.01 μM, p < 0.01 for 0.1 and 1 μM, dose-dependent
# Protocol: as §1
# secretion of insulin = details: cited from earlier work
# Text: An important mechanism whereby calcineurin promotes the activation of T cells and the induction of cytokine-related genes is largely attributed to a family of transcriptional regulators that are referred to as NFAT. The immunosuppressants cyclosporine A and FK506, which are used clinically to prevent transplant rejection, inhibit the activity of calcineurin phosphatase on all its protein substrates, including NFAT[1], [2].
# [2] = tested on: GFP-NFAT-1 in HEK293 cells; test: Inhibition of GFP-NFAT-1 nuclear translocation; assay type: cell-based; details: 1 μM FK506 for 2 h, then 500 nM ionomycin 15 min; transfected HEK 293 cells; five independent experiments
# Protocol: HEK293 cells (ATCC) were plated onto glass cover slips in 35-mm culture dishes. GFP-NFAT-1 plasmid[6] was transfected with Lipofectamine 2000 (ThermoFisher Scientific K.K., Yokohama, Japan). […] The nuclear fluorescence intensity was quantified using a Fluoview device (Olympus, Tokyo, Japan) and measured with AquaCosmos software (Hamamatsu Photonics). The fluorescent intensity of 10 cells was counted; five sets of experiments were conducted. Background fluorescent intensity was subtracted from all experiments.
# [3] = tested on: IL-2 protein in Jurkat cells; test: Inhibition of the production of IL-2 (ELISA of supernatant); assay type: cell-based, human; details: 100 nM FK506, then PMA and ionomycin 12 h
# Protocol: Jurkat cells (1 × 10^5) were treated with medium containing peptides or FK506, then incubated with the same amount of medium containing 200 nM PMA (Sigma-Aldrich) and 4 μM ionomycin for an additional 12 h. IL-2 protein was detected in the supernatant of cells using an ELISA kit according to the manufacturer’s instructions (eBioscience, San Diego, CA, USA).
compound,measurement,setting,value
C=CC[C@@H]1/C=C(\C)C[C@H](C)C[C@H](OC)[C@H]2O[C@@](O)(C(=O)C(=O)N3CCCC[C@H]3C(=O)O[C@H](/C(C)=C/[C@@H]3CC[C@@H](O)[C@H](OC)C3)[C@H](C)[C@@H](O)CC1=O)[C@H](C)C[C@@H]2OC [FK506],Insulin secretion,[1],significantly inhibited
same,Insulin secretion,βTC6 cells,significantly inhibited
same,Secretion of insulin,secretion of insulin,dose-dependent decrease
same,Ionomycin-induced GFP-NFAT-1 nuclear translocation,[2],strong inhibition
same,Production of IL-2,[3],completely inhibited
